Assay results as given in US20250154138A1, “Small Molecule IL-17A Modulators” (BeiGene, Ltd., priority 2022, published 2025).

Experiments:
[1] = biological target: human IL-17A / human IL-17RA (Homo sapiens (Human), UniProt Q16552); test: Human IL-17A biochemical assay (HTRF, blocking of IL-17A binding to IL-17RA); conditions: 0.4 nM IL-17A, 0.3 nM IL-17RA, max compound concentration 10 uM
Method in brief: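 0.4 nM hIL-17A + cpd (10 uM top, 2.7x, 10 pt), 3 h RT, HEPES pH 7.5 buffer w/ BSA, DTT, Tween 20; + 0.3 nM hIL-17RA 1 h RT; Tb/XL665 Abs 1 h; HTRF 620/665 ratio; 4PL IC50.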

[2] = system: IL-17-induced GROα secretion from HT-29 cells; test: GROα release assay in human colorectal adenocarcinoma epithelial cell (HT-29, ELISA); assay type: cell-based; conditions: Homo sapiens, HT-29, 48 h, 10 ng/mL IL-17A, highest concentration 10 μM, read-out: Cellular assay HT29 cell/CXCL1 IC50
Method in brief: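 HT-29 cells were exposed 48 h at 37°C to IL-17A (final 10 ng/mL) preincubated 15 min with compound (4-fold dilutions, top 10 μM). Secreted GROα was quantified by ELISA against a standard curve, and IC50 obtained by four-parameter fitting.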

Sequence of human IL-17A / human IL-17RA (Q16552 24-155): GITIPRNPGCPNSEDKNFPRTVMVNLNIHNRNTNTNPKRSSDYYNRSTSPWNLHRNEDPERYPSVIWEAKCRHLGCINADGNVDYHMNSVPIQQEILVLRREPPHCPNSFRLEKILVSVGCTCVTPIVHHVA

SMILES | IC50 [1] [nM] | IC50 [2] [nM]
Cc1nonc1C(=O)N[C@H](C(=O)Nc1ccc2c(c1)CC(C(=O)NC1CCC(F)(F)CC1)(N1CC3(CC3)CNC1=O)C2)C1CCC(F)(F)CC1 (stereo partly drawn) [Example 191, N-((1S)-1-(4,4-difluorocyclohexyl)-2-((2-((4,4-difluorocyclohexyl)carbamoyl)-2-(6-oxo-5,7-diazaspiro[2.5]octan-5-yl)-2,3-dihydro-1H-inden-5-yl)amino)-2-oxoethyl)-4-methyl-1,2,5-oxadiazole-3-carboxamide] | 76.9 | 168
Cc1nonc1C(=O)N[C@H](C(=O)Nc1ccc2c(c1)CC(C(=O)Nc1ccccc1C(C)C)(N1C[C@@H](C(C)C)NC1=O)C2)C(C1CC1)C1CC1 (stereo partly drawn) [Example 288, N-((2S)-1,1-dicyclopropyl-3-((2-((R)-4-isopropyl-2-oxoimidazolidin-1-yl)-2-((2-isopropylphenyl)carbamoyl)-2,3-dihydro-1H-inden-5-yl)amino)-3-oxopropan-2-yl)-4-methyl-1,2,5-oxadiazole-3-carboxamide] | 110 | 408
CNC(=O)C1(N2C[C@@H](C(C)C)NC2=O)Cc2ccc(NC(=O)[C@H](Cc3cc(-c4ccnc(C(C)(C)O)c4)ccc3Cl)NC(=O)c3ccnn3C)cc2C1 (stereo partly drawn) [Example 79, N-((2S)-3-(2-chloro-5-(2-(2-hydroxypropan-2-yl)pyridin-4-yl)phenyl)-1-((2-((R)-4-isopropyl-2-oxoimidazolidin-1-yl)-2-(methylcarbamoyl)-2,3-dihydro-1H-inden-5-yl)amino)-1-oxopropan-2-yl)-1-methyl-1H-pyrazole-5-carboxamide] | 79 | 1300
Cn1nccc1C(=O)N[C@H](C(=O)Nc1ccc2c(c1)OC(CN1C[C@@H](C(F)(F)F)NC1=O)C2)C1CCCCC1 (stereo partly drawn) [Example 237, N-((1S)-1-cyclohexyl-2-oxo-2-((2-(((S)-2-oxo-4-(trifluoromethyl)imidazolidin-1-yl)methyl)-2,3-dihydrobenzofuran-6-yl)amino)ethyl)-1-methyl-1H-pyrazole-5-carboxamide] | 27.1 | 53.3
CNC(=O)C1(N2C[C@@H](C(C)C)NC2=O)Cc2ccc(NC(=O)[C@@H](NC(=O)c3ccnn3C)C3CCCC3)cc2C1 (stereo partly drawn) [Example 46, N-((1S)-1-cyclopentyl-2-((2-((R)-4-isopropyl-2-oxoimidazolidin-1-yl)-2-(methylcarbamoyl)-2,3-dihydro-1H-inden-5-yl)amino)-2-oxoethyl)-1-methyl-1H-pyrazole-5-carboxamide] | 260 | 533
CC(C)n1nccc1C(=O)N[C@H](C(=O)Nc1ccc2c(c1)CC(N1C[C@@H](C(F)(F)F)NC1=O)C2)C(C1CC1)C1CC1 (stereo partly drawn) [Example 177, N-((2S)-1,1-dicyclopropyl-3-oxo-3-((2-((S)-2-oxo-4-(trifluoromethyl)imidazolidin-1-yl)-2,3-dihydro-1H-inden-5-yl)amino)propan-2-yl)-1-isopropyl-1H-pyrazole-5-carboxamide] | 53.3 | 59.4
Cc1nonc1C(=O)N[C@H](C(=O)Nc1ccc2c(c1)CC(C(=O)Nc1c(F)cccc1Cl)(N1C[C@@H](C(C)C)NC1=O)C2)C(C1CC1)C1CC1 (stereo partly drawn) [Example 275, N-((2S)-1-((2-((2-chloro-6-fluorophenyl)carbamoyl)-2-((R)-4-isopropyl-2-oxoimidazolidin-1-yl)-2,3-dihydro-1H-inden-5-yl)amino)-3,3-dicyclopropyl-1-oxopropan-2-yl)-4-methyl-1,2,5-oxadiazole-3-carboxamide] | 61.3 | 133
Cc1nonc1C(=O)N[C@H](C(=O)Nc1ccc2c(c1)CC(C(=O)O)(N1CC3(CC3)CNC1=O)C2)C1CCC(F)(F)CC1 (stereo partly drawn) [Example 188, 5-((S)-2-(4,4-difluorocyclohexyl)-2-(4-methyl-1,2,5-oxadiazole-3-carboxamido)acetamido)-2-(6-oxo-5,7-diazaspiro[2.5]octan-5-yl)-2,3-dihydro-1H-indene-2-carboxylic acid] | 44.9 | 450
Cn1nccc1C(=O)N[C@H](C(=O)Nc1ccc2c(c1)CC(CNc1ccccc1)(N1CC3(CC3)CNC1=O)C2)C1CCCCC1 (stereo partly drawn) [Example 161, N-((1S)-1-cyclohexyl-2-oxo-2-((2-(6-oxo-5,7-diazaspiro[2.5]octan-5-yl)-2-((phenylamino)methyl)-2,3-dihydro-1H-inden-5-yl)amino)ethyl)-1-methyl-1H-pyrazole-5-carboxamide] | 121 | 146
COCC1(N2C[C@@H](C(C)C)NC2=O)Cc2ccc(NC(=O)[C@@H](NC(=O)c3ccnn3C)C(C3CC3)C3CC3)cc2C1 (stereo partly drawn) [Example 245, N-((2S)-1,1-dicyclopropyl-3-((2-((R)-4-isopropyl-2-oxoimidazolidin-1-yl)-2-(methoxymethyl)-2,3-dihydro-1H-inden-5-yl)amino)-3-oxopropan-2-yl)-1-methyl-1H-pyrazole-5-carboxamide] | 52.4 | 92.5
CNC(=O)C1(N2CC(C)(C)CNC2=O)Cc2ccc(NC(=O)[C@@H](NC(=O)c3ccnn3C)C3CCCCC3)cc2C1 (stereo partly drawn) [Example 70, N-((1S)-1-cyclohexyl-2-((2-(5,5-dimethyl-2-oxotetrahydropyrimidin-1(2H)-yl)-2-(methylcarbamoyl)-2,3-dihydro-1H-inden-5-yl)amino)-2-oxoethyl)-1-methyl-1H-pyrazole-5-carboxamide] | 26 | 70.6
Cc1nonc1C(=O)N[C@H](C(=O)Nc1ccc2c(c1)CC(N1CC3(CC3)CNC1=O)(C(C)(C)O)C2)C1CCC(F)(F)CC1 (stereo partly drawn) [Example 247, N-((1S)-1-(4,4-difluorocyclohexyl)-2-((2-(2-hydroxypropan-2-yl)-2-(6-oxo-5,7-diazaspiro[2.5]octan-5-yl)-2,3-dihydro-1H-inden-5-yl)amino)-2-oxoethyl)-4-methyl-1,2,5-oxadiazole-3-carboxamide] | 20.9 | 40.8
